How the values were obtained:
[1] = test system: primary cortical neuron cells; assay: Toxicity of human Aβ1-42 peptide on primary cortical neuron cells (MAP2 antibody labelling); type: cell-based, rat; details: combinations versus drugs used alone at the same doses
Protocol: Effect on the Toxicity of Human Aβ1-42 Peptide on Primary Cortical Neuron Cells.
Culture of Primary Cortical Neurons
Rat cortical neurons are cultured as described by Singer et al.. Briefly pregnant female rats of 15 days gestation were killed by cervical dislocation (Rats Wistar) and the foetuses were removed from the uterus. The cortex was removed and placed in ice-cold medium of Leibovitz (L15) containing 2% of Penicillin 10.000 U/ml and Streptomycin 10 mg/ml and 1% of bovine serum albumin (BSA). Cortices were dissociated by trypsin for 20 min at 37° C. (0.05%). The reaction was stopped by the addition of Dulbecco's modified Eagle's medium (DMEM) containing DNase 1 grade II and 10% of fetal calf serum (FCS). Cells were then mechanically dissociated by 3 serial passages through a 10 ml pipette and centrifuged at 515×g for […] at +4° C. The supernatant was discarded and the pellet of cells was re-suspended in a defined culture medium consisting of Neurobasal supplemented with B27 (2%), L-glutamine (0.2 mM), 2% of PS solution and 10 ng/ml of BDNF. Viable cells are counted in a Neubauer cytometer using the trypan blue exclusion test. The cells are seeded at a density of 30 000 cells/well in 96 well-plates (wells were pre-coated with poly-L-lysine (10 μg/ml)) and are cultured at +37° C. in a humidified air (95%)/CO2 (5%) atmosphere.
Three independent cultures are performed per condition, 6 wells per condition.
Test compounds and Human Amyloid-β1-42 Treatment
Briefly, Aβ1-42 peptide is reconstituted in define culture medium at 40 μM (mother solution) and was slowly shaken at +37° C. for 3 days in dark. The control medium is prepared in the same conditions.
After 3 days, the solution is used on primary cortical neurons as follows.
After 10 days of neuron culture, test compounds and combinations thereof are solved in culture medium (+0.1% DMSO) and then pre-incubated with neurons for one hour before the Aβ1_42 application (in a final volume per culture well of 100 μl). One hour after test compound(s) incubation, 100 μl of Aβ1-42 peptide is added to a final concentration of 10 μM diluted in presence of drug(s), in order to avoid further test compound(s) dilutions. Cortical neurons are intoxicated for 24 h. Three separate cultures are performed per condition, 6 wells per condition.
BDNF (50 ng/ml) is used as positive control. Three separate cultures are performed per condition, 12 wells per condition.
MAP2 Antibody Labelling Assay
24 hours after intoxication, the cell culture supernatant is taken off and the cortical neurons are fixed by a cold solution of ethanol (95%) and acetic acid (5%) for 5 min at −20° C. After permeabilization with 0.1% of saponin, cells are incubated for 2 h with mouse monoclonal antibody anti microtubule-associated-protein 2 (MAP-2; Sigma) at dilution of 1/400 in PBS containing 1% fetal calf serum and 0.1% of saponin (this antibody stains specifically cell bodies and neurites, allowing study of both the neurite network and cell death). […] For each condition, 30 pictures per well are taken using InCell Analyzer™ 1000 (GE Healthcare) with 20× magnification. All images are taken with the same conditions. Analysis of total neurite network and number of neurons is performed automatically by using Developer software (GE Healthcare).
Data are expressed in percentage of control conditions (no intoxication, no amyloid=100%) in order to express the amyloid injury. All values are expressed as mean+/−SEM (s.e.mean) of the 3 cultures (n=6 wells per condition). Statistical analyses are done on the different conditions (one-way ANOVA followed by the Dunnett's test when it is allowed, Statview software version 5.0).

Male Swiss mice [2] = assay: Spontaneous alternation in the Y-maze (spatial working memory) in mice injected ICV with Aβ25-35; type: in vivo, mouse; details: oral gavage Day 0 to Day 10, quinoline 1 mg/Kg once a day, baclofen 480 μg/Kg and acamprosate 32 μg/Kg twice a day, test at Day 8
Protocol: (§1) The peptide amyloid-β25-35 (Aβ25-35) is the hydrophobic part of the full-length amyloid peptide. Injection of this peptide in the brain ventricles of rodents is known to induce a progressive neurodegenerative processes resulting in cognitive impairments. This model is commonly used for diseases involving cognitive impairment symptoms.
(§2) Male Swiss mice were administered from Day 0 to Day 10 with sham product (group 1 and 2); 3-phenylsulfonyl-8-(piperazin-1-yl) quinoline (group 3); baclofen and acamprosate (group 4); or 3-phenylsulfonyl-8-(piperazin-1-yl) quinoline, baclofen and acamprosate (group 5).
(§3) 3-phenylsulfonyl-8-(piperazin-1-yl) quinoline) was administered orally by gavage once a day (1 mg/Kg of the individual body weight of each mouse.
(§4) A composition of baclofen and acamprosate was administered orally by gavage twice a day (respectively 480 μg/Kg and 32 μg/Kg of the individual body weight of each mouse).
(§5) At Day 1, oligomeric Aβ25-35 peptide was injected ICV (intracerebroventricular) to provoke amyloid toxicity (group 2, 3, 4 and 5). […]
Animals were tested for spontaneous alternation performance in the Y-maze, an index of spatial working memory. […] The number of maximum alternations was therefore the total number of arm entries minus two and the percentage of alternation was calculated as (actual alternations/maximum alternations)×100. […]

Male Swiss mice [3] = assay: Step-through passive avoidance test (contextual long-term memory) in mice injected ICV with Aβ25-35; type: in vivo, mouse; details: oral gavage Day 0 to Day 10, quinoline 1 mg/Kg once a day, baclofen 480 μg/Kg and acamprosate 32 μg/Kg twice a day, retention at Day 10
Protocol: as §1, §2, §3, §4, §5
All animals were tested for passive avoidance performance, an index of contextual long-term memory. […] The step-through latency, that is, the latency spent to enter the darkened compartment, and the number of vocalizations were recorded. […] The step-through latency was recorded up to 300 s.

SMILES	protective effect on neuronal cells against Aβ1-42 toxicity [1]	effect on the impairment of cognitive function induced by Aβ(25-35), Y-maze (Male Swiss mice [2])	effect on the impairment of cognitive function induced by Aβ(25-35), step-through passive avoidance (Male Swiss mice [3])
O=S(=O)(c1ccccc1)c1cnc2c(N3CCNCC3)cccc2c1 [3-phenylsulfonyl-8-(piperazin-1-yl) quinoline]	no or a marginal protective effect	did not show any significant effect	did not show any significant effect
CC(=O)NCCCS(=O)(=O)O [acamprosate]	no or a marginal protective effect	–	–
NCC(CC(=O)O)c1ccc(Cl)cc1 (centres unmarked) [baclofen]	no or a marginal protective effect	–	–
CC12CC3CC(C)(C1)CC(N)(C3)C2 [memantine]	no or a marginal protective effect	–	–
CCN(C)C(=O)Oc1cccc([C@H](C)N(C)C)c1 [rivastigmine]	no or a marginal protective effect	–	–
Nc1c2c(nc3ccccc13)CCCC2 [tacrine]	no or a marginal protective effect	–	–

Reference: patent publication US10799499B2, “Combinatorial therapies of neurological disorders” (PHARNEXT, priority 2016, dated 2020)
